Laboratory results taken from US12077503B2, “Substituted cyclic amides and their use as herbicides” (FMC CORPORATION, priority 2015, dated 2024).

Columns and labels:
Assay type in all cases: in vivo
[1] = tested on: barnyardgrass (Echinochloa crus-galli); assay: Test G Pre-Emergence Protocol; settings: Echinochloa crus-galli, pre-emergence, 312 h, evaluated after 13 days; for pest or weed control at 15.625 g/ha: 15.625 g ai/ha, read-out: Barnyard grass damage rating (100=total damage to plant; 0=no damage to plant); for pest or weed control at 62.5 g/ha: 62.5 g ai/ha, 100=total damage to plant, 0=no damage to plant, read-out: plant damage rating, Barnyardgrass; for pest or weed control at 250 g/ha: 250 g ai/ha, read-out: Barnyardgrass damage rating (100=total damage to plant; 0=no damage to plant)
In short: (§1)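 One day after sowing, pots are treated with a spray of test compound formulated in acetone/water 50:50 plus 0.5% Tween 20, giving 15.625, 62.5 or 250 g/ha. Evaluation on a 0–100 damage scale follows 13 days of glasshouse growth.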

corn (Zea mays) [2] = assay: Test G Pre-Emergence Protocol; settings: Zea mays, pre-emergence, 312 h, evaluated after 13 days; for plant injury at 15.625 g/ha: 15.625 g ai/ha; for plant injury at 15.625 g/ha / plant injury at 250 g/ha: read-out: Corn damage rating (100=total damage to plant; 0=no damage to plant); for plant injury at 62.5 g/ha: 62.5 g ai/ha, 100=total damage to plant, 0=no damage to plant, read-out: plant damage rating, Corn; for plant injury at 250 g/ha: 250 g ai/ha
In short: as §1

[3] = tested on: giant foxtail (Setaria faberi); assay: Test G Pre-Emergence Protocol; settings: Setaria faberi, pre-emergence, 312 h, evaluated after 13 days; for pest or weed control at 15.625 g/ha: 15.625 g ai/ha; for pest or weed control at 15.625 g/ha / pest or weed control at 250 g/ha: read-out: Foxtail, Giant damage rating (100=total damage to plant; 0=no damage to plant); for pest or weed control at 62.5 g/ha: 62.5 g ai/ha, 100=total damage to plant, 0=no damage to plant, read-out: plant damage rating, Foxtail, Giant; for pest or weed control at 250 g/ha: 250 g ai/ha
In short: as §1

[4] = tested on: ivy-leaved morning glory (Ipomoea hederacea); assay: Test G Pre-Emergence Protocol; settings: Ipomoea, pre-emergence, 312 h, evaluated after 13 days; for pest or weed control at 15.625 g/ha: 15.625 g ai/ha, read-out: Morning-glory, Ivy-leaved damage rating (100=total damage to plant; 0=no damage to plant); for pest or weed control at 62.5 g/ha: 62.5 g ai/ha, 100=total damage to plant, 0=no damage to plant, read-out: plant damage rating, Morningglory, Ivy-leaved; for pest or weed control at 250 g/ha: 250 g ai/ha, read-out: Morningglory, Ivy-leaved damage rating (100=total damage to plant; 0=no damage to plant)
In short: as §1

[5] = tested on: redroot pigweed (Amaranthus retroflexus); assay: Test G Pre-Emergence Protocol; settings: Amaranthus retroflexus, pre-emergence, 312 h, evaluated after 13 days; for pest or weed control at 15.625 g/ha: 15.625 g ai/ha; for pest or weed control at 15.625 g/ha / pest or weed control at 250 g/ha: read-out: Pigweed, Redroot damage rating (100=total damage to plant; 0=no damage to plant); for pest or weed control at 62.5 g/ha: 62.5 g ai/ha, 100=total damage to plant, 0=no damage to plant, read-out: plant damage rating, Pigweed, Redroot; for pest or weed control at 250 g/ha: 250 g ai/ha
In short: as §1

[6] = tested on: velvetleaf (Abutilon theophrasti); assay: Test G Pre-Emergence Protocol; settings: Abutilon theophrasti, pre-emergence, 312 h, evaluated after 13 days; for pest or weed control at 15.625 g/ha: 15.625 g ai/ha; for pest or weed control at 15.625 g/ha / pest or weed control at 250 g/ha: read-out: Velvetleaf damage rating (100=total damage to plant; 0=no damage to plant); for pest or weed control at 62.5 g/ha: 62.5 g ai/ha, 100=total damage to plant, 0=no damage to plant, read-out: plant damage rating, Velvetleaf; for pest or weed control at 250 g/ha: 250 g ai/ha
In short: as §1

[7] = tested on: barnyardgrass (Echinochloa crus-galli); assay: Test G Post-Emergence Protocol; settings: Echinochloa crus-galli, post-emergence, 312 h; for pest or weed control at 15.625 g/ha: 15.625 g ai/ha, evaluated after 13 days (100=total damage to plant; 0=no damage to plant), read-out: Barnyardgrass damage rating; for pest or weed control at 62.5 g/ha: 62.5 g ai/ha, read-out: Barnyardgrass damage rating (100=total damage to plant; 0=no damage to plant); for pest or weed control at 62.5 g/ha / pest or weed control at 250 g/ha: evaluated after 13 days; for pest or weed control at 250 g/ha: 250 g ai/ha, read-out: damage to plant, Barnyardgrass (100=total damage to plant; 0=no damage to plant)
In short: (§2)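 Foliar application was made 8 days after sowing, using an aqueous spray of the active in acetone/water (50:50) with 0.5% Tween 20, at doses of 15.625, 62.5 or 250 g/ha. Injury was assessed 13 days later, where 100 meant the plant was fully damaged.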

corn (Zea mays) [8] = assay: Test G Post-Emergence Protocol; settings: Zea mays, post-emergence, 312 h; for plant injury at 15.625 g/ha: 15.625 g ai/ha, evaluated after 13 days (100=total damage to plant; 0=no damage to plant), read-out: Corn damage rating; for plant injury at 62.5 g/ha: 62.5 g ai/ha, read-out: Corn damage rating (100=total damage to plant; 0=no damage to plant); for plant injury at 62.5 g/ha / plant injury at 250 g/ha: evaluated after 13 days; for plant injury at 250 g/ha: 250 g ai/ha, read-out: damage to plant, Corn (100=total damage to plant; 0=no damage to plant)
In short: as §2

[9] = tested on: giant foxtail (Setaria faberi); assay: Test G Post-Emergence Protocol; settings: Setaria faberi, post-emergence, 312 h; for pest or weed control at 15.625 g/ha: 15.625 g ai/ha, evaluated after 13 days (100=total damage to plant; 0=no damage to plant), read-out: Foxtail, Giant damage rating; for pest or weed control at 62.5 g/ha: 62.5 g ai/ha, read-out: Foxtail, Giant damage rating (100=total damage to plant; 0=no damage to plant); for pest or weed control at 62.5 g/ha / pest or weed control at 250 g/ha: evaluated after 13 days; for pest or weed control at 250 g/ha: 250 g ai/ha, read-out: damage to plant, Foxtail, Giant (100=total damage to plant; 0=no damage to plant)
In short: as §2

[10] = tested on: ivy-leaved morning glory (Ipomoea hederacea); assay: Test G Post-Emergence Protocol; settings: Ipomoea, post-emergence, 312 h; for pest or weed control at 15.625 g/ha: 15.625 g ai/ha, evaluated after 13 days (100=total damage to plant; 0=no damage to plant), read-out: Morningglory, Ivy-leaved damage rating; for pest or weed control at 62.5 g/ha: 62.5 g ai/ha, read-out: Morningglory, Ivy-leaved damage rating (100=total damage to plant; 0=no damage to plant); for pest or weed control at 62.5 g/ha / pest or weed control at 250 g/ha: evaluated after 13 days; for pest or weed control at 250 g/ha: 250 g ai/ha, read-out: damage to plant, Morningglory, Ivy-leaved (100=total damage to plant; 0=no damage to plant)
In short: as §2

[11] = tested on: redroot pigweed (Amaranthus retroflexus); assay: Test G Post-Emergence Protocol; settings: Amaranthus retroflexus, post-emergence, 312 h; for pest or weed control at 15.625 g/ha: 15.625 g ai/ha, evaluated after 13 days (100=total damage to plant; 0=no damage to plant), read-out: Pigweed, Redroot damage rating; for pest or weed control at 62.5 g/ha: 62.5 g ai/ha, read-out: Pigweed, Redroot damage rating (100=total damage to plant; 0=no damage to plant); for pest or weed control at 62.5 g/ha / pest or weed control at 250 g/ha: evaluated after 13 days; for pest or weed control at 250 g/ha: 250 g ai/ha, read-out: damage to plant, Pigweed, Redroot (100=total damage to plant; 0=no damage to plant)
In short: as §2

[12] = tested on: velvetleaf (Abutilon theophrasti); assay: Test G Post-Emergence Protocol; settings: Abutilon theophrasti, post-emergence, 312 h; for pest or weed control at 15.625 g/ha: 15.625 g ai/ha, evaluated after 13 days (100=total damage to plant; 0=no damage to plant), read-out: Velvetleaf damage rating; for pest or weed control at 62.5 g/ha: 62.5 g ai/ha, read-out: Velvetleaf damage rating (100=total damage to plant; 0=no damage to plant); for pest or weed control at 62.5 g/ha / pest or weed control at 250 g/ha: evaluated after 13 days; for pest or weed control at 250 g/ha: 250 g ai/ha, read-out: damage to plant, Velvetleaf (100=total damage to plant; 0=no damage to plant)
In short: as §2

## Cc1cc(C(F)(F)F)ccc1[C@@H]1CN(C)C(=O)[C@H]1C(=O)Nc1ccccc1F (racemic) [Compound 1415]
[1]
  pest or weed control at 15.625 g/ha: 10%
  pest or weed control at 62.5 g/ha: 50%
  pest or weed control at 250 g/ha: 70%
Corn (Zea mays) [2]
  plant injury at 15.625 g/ha: 0%
  plant injury at 62.5 g/ha: 0%
  plant injury at 250 g/ha: 0%
[3]
  pest or weed control at 15.625 g/ha: 10%
  pest or weed control at 62.5 g/ha: 70%
  pest or weed control at 250 g/ha: 80%
[4]
  pest or weed control at 15.625 g/ha: 0%
  pest or weed control at 62.5 g/ha: 0%
  pest or weed control at 250 g/ha: 0%
[5]
  pest or weed control at 15.625 g/ha: 10%
  pest or weed control at 62.5 g/ha: 0%
  pest or weed control at 250 g/ha: 10%
[6]
  pest or weed control at 15.625 g/ha: 0%
  pest or weed control at 62.5 g/ha: 0%
  pest or weed control at 250 g/ha: 0%
[7]
  pest or weed control at 15.625 g/ha: 20%
  pest or weed control at 62.5 g/ha: 30%
  pest or weed control at 250 g/ha: 60%
Corn (Zea mays) [8]
  plant injury at 15.625 g/ha: 20%
  plant injury at 62.5 g/ha: 10%
  plant injury at 250 g/ha: 20%
[9]
  pest or weed control at 15.625 g/ha: 20%
  pest or weed control at 62.5 g/ha: 60%
  pest or weed control at 250 g/ha: 70%
[10]
  pest or weed control at 15.625 g/ha: 10%
  pest or weed control at 62.5 g/ha: 10%
  pest or weed control at 250 g/ha: 20%
[11]
  pest or weed control at 15.625 g/ha: 10%
  pest or weed control at 62.5 g/ha: 10%
  pest or weed control at 250 g/ha: 30%
[12]
  pest or weed control at 15.625 g/ha: 10%
  pest or weed control at 62.5 g/ha: 0%
  pest or weed control at 250 g/ha: 20%

## CN1C[C@@H](c2ccc(NS(C)(=O)=O)cc2)[C@H](C(=O)Nc2ccccc2F)C1=O (racemic) [Compound 1416]
[1]
  pest or weed control at 15.625 g/ha: 0%
  pest or weed control at 62.5 g/ha: 0%
  pest or weed control at 250 g/ha: 0%
Corn (Zea mays) [2]
  plant injury at 15.625 g/ha: 0%
  plant injury at 62.5 g/ha: 0%
  plant injury at 250 g/ha: 0%
[3]
  pest or weed control at 15.625 g/ha: 0%
  pest or weed control at 62.5 g/ha: 0%
  pest or weed control at 250 g/ha: 0%
[4]
  pest or weed control at 15.625 g/ha: 0%
  pest or weed control at 62.5 g/ha: 0%
  pest or weed control at 250 g/ha: 0%
[5]
  pest or weed control at 15.625 g/ha: 0%
  pest or weed control at 62.5 g/ha: 0%
  pest or weed control at 250 g/ha: 0%
[6]
  pest or weed control at 15.625 g/ha: 0%
  pest or weed control at 62.5 g/ha: 0%
  pest or weed control at 250 g/ha: 0%
[7]
  pest or weed control at 15.625 g/ha: 0%
  pest or weed control at 62.5 g/ha: 0%
  pest or weed control at 250 g/ha: 0%
Corn (Zea mays) [8]
  plant injury at 15.625 g/ha: 0%
  plant injury at 62.5 g/ha: 0%
  plant injury at 250 g/ha: 0%
[9]
  pest or weed control at 15.625 g/ha: 0%
  pest or weed control at 62.5 g/ha: 0%
  pest or weed control at 250 g/ha: 0%
[10]
  pest or weed control at 15.625 g/ha: 0%
  pest or weed control at 62.5 g/ha: 0%
  pest or weed control at 250 g/ha: 0%
[11]
  pest or weed control at 15.625 g/ha: 0%
  pest or weed control at 62.5 g/ha: 0%
  pest or weed control at 250 g/ha: 0%
[12]
  pest or weed control at 15.625 g/ha: 0%
  pest or weed control at 62.5 g/ha: 0%
  pest or weed control at 250 g/ha: 0%
